Results taken from patent publication US7303765B2, “Ultrafine-L-carnitine, methods of preparing the same, compositions containing the same, and methods of using the same” (Sigma-Tau HealthScience S.p.A., priority 1999, dated 2007).

Experiments:
Solubility in water = format: physicochemical
Description: Ultra-fine L-carnitine fumarate so prepared has the following analytical properties: […]

[1] = Bioavailability / human plasma levels after dosing; settings: in vivo
Description: Transformers may therefore accomplish the target dosage using a reduced active bolus, an efficiency which translates to cost savings. In principle, consumers purchase nutritionals on a pure weight volume (W/V) basis.

[2] = Oral toxicity (LD50) in rats; settings: rat, in vivo

C[N+](C)(C)C[C@H](O)CC(=O)[O-].O=C(O)/C=C/C(=O)O [Ultra-fine L-carnitine fumarate, L-carnitine fumarate]
Solubility (Solubility in water): 5 g/100 ml in water | bioavailability through the mitochondrial pathway ([1]; human): increased bioavailability | human plasma levels [1]: equal those of conventionally sized L-carnitine tartrate | LD50 [2]: > 8000 mg/kg
